Assay results published in US5189027A, “2-substituted adenosine derivatives and pharmaceutical compositions for circulatory diseases” (priority 1990, dated 1993).
Like-named read-outs stand apart in the source and are kept apart here.

Legend:
A1 adenosine receptors [1] = target: T1, A1 adenosine receptors (Rattus norvegicus, UniProt P25099); assay: Affinity for A1 adenosine receptors, [3H]-CHA binding to Wister rat brain membranes; conditions: 2.5 nM [3H]-CHA, Cheng and Prusoff, read-out: Affinity for Adenosine Receptors A1, affinity constant (Ki)
T1 construct: evaluated using Wister rat brain membranes; from tissue; host or cells: Wistar rat brain membranes
T1 sequence (P25099 1-326): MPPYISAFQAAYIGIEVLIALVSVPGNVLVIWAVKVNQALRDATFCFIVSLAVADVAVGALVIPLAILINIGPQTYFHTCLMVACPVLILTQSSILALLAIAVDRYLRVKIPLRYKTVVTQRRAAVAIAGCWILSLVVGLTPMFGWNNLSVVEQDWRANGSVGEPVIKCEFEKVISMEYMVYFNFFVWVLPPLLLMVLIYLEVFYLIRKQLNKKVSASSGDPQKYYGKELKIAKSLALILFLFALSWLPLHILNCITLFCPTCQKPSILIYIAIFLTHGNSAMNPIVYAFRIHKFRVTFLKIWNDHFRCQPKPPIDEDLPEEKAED
Procedure: The affinity of the compounds of the present invention for adenosine receptors was evaluated in substantially the same manner as is described in R. F. Bruns et al., Mol. Pharmacol., 29, 331-346 (1986); R. F. Bruns et al., Proc. Natl. Acad. Sci., U.S.A., 77, 5547 (1980); and Japanese Laid-Open Patent Publications Nos. 201196/1988 and 111996/1987. […] The above-obtained data were applied to the equation of Cheng and Prusoff, presented in Biochem. Pharmacol., 22, 3099 (1973), thereby finally obtaining the affinity constants (Ki). (See "Neurotransmitter and Receptor Binding". […] Kabushiki Kaisha (Sep. 15, 1987).)

[2] = system: spontaneously hypertensive rats (SHRs); assay: Effect on blood pressure and heart rate in SHR; assay type: in vivo, rat; conditions: for ED30: Rattus norvegicus, iv, 5 min, read-out: Blood Pressure ED30; for Heart Rate ED10: amount giving a 10 percent decrease in initial heart rate; for ED10/ED30: ratio of heart rate ED10 to blood pressure ED30 in SHR
Procedure: Male spontaneously hypertensive rats (SHRs) were anesthetized with urethane and α-chloralose. The blood pressure of the rats was measured with a pressure transducer through a polyethylene cannula inserted into the left carotid artery. The heart rate was monitored with a cardiotachometer triggered by the arterial pressure pulse. […] The blood pressure and the heart rate of the rats were measured 5 minutes after the respective administrations, and the maximum values thereof were determined.
Effects of the test compounds on the blood pressure and the heart rate were compared in terms of the ED30 and ED10 values.

A2 adenosine receptors [3] = conditions: background statement; cited from earlier work
A1 adenosine receptors [4] = conditions: background statement; cited from earlier work
A2 adenosine receptors [5] = target: T2, A2 adenosine receptors (Rattus norvegicus, UniProt P30543); assay: Affinity for A2 adenosine receptors, [3H]-NECA binding to Wister rat striatal membranes; conditions: for Ki: Wister rat striatal membranes, 5 nM [3H]-NECA, Cheng and Prusoff, read-out: Affinity for Adenosine Receptors A2, affinity constant (Ki)
T2 construct: evaluated using Wister rat striatal membranes; from tissue; host or cells: Wistar rat striatal membranes
T2 sequence (P30543 whole entry): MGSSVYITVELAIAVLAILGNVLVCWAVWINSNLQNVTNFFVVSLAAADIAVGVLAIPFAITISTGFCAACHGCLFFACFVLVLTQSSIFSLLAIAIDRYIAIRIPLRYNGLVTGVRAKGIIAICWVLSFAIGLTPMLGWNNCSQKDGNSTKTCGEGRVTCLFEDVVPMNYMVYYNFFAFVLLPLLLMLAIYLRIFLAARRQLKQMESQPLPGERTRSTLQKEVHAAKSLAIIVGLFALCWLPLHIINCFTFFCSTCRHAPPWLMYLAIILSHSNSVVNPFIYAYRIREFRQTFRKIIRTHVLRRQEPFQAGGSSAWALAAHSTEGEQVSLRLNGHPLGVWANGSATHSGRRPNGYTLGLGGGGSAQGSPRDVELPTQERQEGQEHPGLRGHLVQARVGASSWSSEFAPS
Procedure: The affinity of the test compound for A2 receptors was also evaluated using Wister rat striatal membranes.
The selectivity for A1 and A2 receptors was obtained by calculating the ratio of the Ki value in terms of A2 receptors to that in terms of A1 receptors (A1 /A2).

[6] = anesthetized male SHR, cumulative administration through femoral veins

SMILES: Nc1nc(C#CCC2CCCCC2)nc2c1ncn2[C@@H]1O[C@H](CO)[C@@H](O)[C@H]1O [Compound No. 26, 2-(3-cyclohexyl-1-propynyl)adenosine]
- Ki (A1 adenosine receptors [1]): 0.208 µM
- ED30 [2]: 0.126 µg/kg
- Heart Rate ED10 [2, 6]: > 100 µg/kg
- ED10/ED30 [2]: > 793

SMILES: CCNC(=O)[C@H]1O[C@@H](n2cnc3c(N)ncnc32)[C@H](O)[C@@H]1O [5'-N-ethylcarboxamideadenosine (NECA), 5'-N-ethylcarboxamideadenosine]
- affinity for A2 receptors (A2 adenosine receptors [3]): high affinity for A2 receptors
- affinity for A1 receptors (A1 adenosine receptors [4]): high affinity for A1 receptors

SMILES: Nc1nc(C#CC2(O)CCCCC2)nc2c1ncn2[C@@H]1O[C@H](CO)[C@@H](O)[C@H]1O [Compound No. 29, 2-[(1-hydroxycyclohexane-1-yl)ethynyl]adenosine]
- Ki (A1 adenosine receptors [1]): 0.021 µM
- ED30 [2]: 0.014 µg/kg
- Heart Rate ED10 [2, 6]: 3.29 µg/kg
- ED10/ED30 [2]: 235

SMILES: Nc1nc(C#CC2(O)CCCCCCC2)nc2c1ncn2[C@@H]1O[C@H](CO)[C@@H](O)[C@H]1O [Compound No. 45, 2-[(1-hydroxycyclooctane-1-yl)ethynyl]adenosine]
- Ki (A1 adenosine receptors [1]): 0.056 µM
- ED30 [2]: 0.012 µg/kg
- Heart Rate ED10 [2, 6]: 14.78 µg/kg
- ED10/ED30 [2]: 1231

SMILES: Nc1nc(C#CCC2CCCC2)nc2c1ncn2[C@@H]1O[C@H](CO)[C@@H](O)[C@H]1O [Compound No. 18, 2-(3-cyclopentyl-1-propynyl)adenosine]
- Ki (A1 adenosine receptors [1]): 0.162 µM
- Ki (A2 adenosine receptors [5]): 0.0023 µM
- ED30 [2]: 0.054 µg/kg
- Heart Rate ED10 [2, 6]: > 100 µg/kg
- ED10/ED30 [2]: > 1851

SMILES: CCCCCCC#Cc1nc(N)c2ncn([C@@H]3O[C@H](CO)[C@@H](O)[C@H]3O)c2n1 [2-Octynyladenosine, reference compound]
- Ki (A2 adenosine receptors [5]): 0.011 µM
- A1/A2 (selectivity, ratio of Ki values) (A2 adenosine receptors [5]; ratio of Ki for A1 receptors to Ki for A2 receptors): 12.1
- ED30 ([2]; amount giving a 30 percent decrease in initial blood pressure, anesthetized male SHR, cumulative administration through femoral veins): 0.25 µg/kg
- Heart Rate ED10 [2, 6]: 64.50 µg/kg
- ED10/ED30 [2]: 258
